# Several values for one entry are separate records, joined by “and”; a condition that tells them apart may be missing. Equal values may be shown once. Read-outs that look alike come from different tables or passages of the source.
# How the values were obtained:
# [1] = system: Staphylococcus aureus ATCC29213; experiment: Murine model of thigh infection (neutropenic ICR mice); conditions: for decrease of thigh bacterial burden compared to vehicle group: 8 h and 14 h post infection
# Text: 40 Male mice used in these study were supplied by Charles River UK and were specific pathogen free. The strain of mouse used was Hsd:ICR (CD-1®), which is a well characterized outbred strain. Mice were 11-15 g on receipt at Evotec's facility and were allowed to acclimatize for minimum of 7 days prior to infection. Mice were approximately 28 g at the start of the study. Mice were housed in sterile individual ventilated cages exposing animals at all times to HEPA filtered sterile air. Mice had free access to food and water (sterile) and had sterile aspen chip bedding. The room temperature was 22° C.±1° C., with a relative humidity of 50-60% and maximum background noise of 56 dB. Mice were exposed to 12 hour light/dark cycles with dawn/dusk phases.
# All mice were rendered neutropenic by immunosuppression with cyclophosphamide at 150 mg/kg 4 days before infection and then 100 mg/kg 1 day before infection administered by intraperitoneal injection. The immunosuppression regime leads to neutropenia starting 24 hours post administration of the first injection, which continues throughout the study. Mice were infected approximately 24 hours after the second dose of immunosuppressive agent.
# Staphylococcus aureus ATCC29213 was used for the study.
# Whilst still under anaesthesia mice were administered a single dose of buprenorphine (0.03 mg/kg) subcutaneously for pain relief.
# Test articles and comparator were prepared in stock solutions at 10× concentration as described in Table 20. The stock solutions were prepared in aliquots (1 aliquot per time of dosing) and frozen at −20° C. The solutions were thawed and then diluted in water just before dosing to obtain the appropriate concentration of 5 mg/mL or 2 mg/mL for oral administration at 10 mL/kg of the dose of 50 mg/kg or 20 mg/kg respectively (Table 20). 10% DMSO in water was used as the vehicle
# After sacrifice of animal, both posterior thighs were removed, weighed, then homogenised in 2 mL PBS using a Precellys bead beater and the homogenates individually quantitatively cultured on CLED agar to determine the bacterial burdens.
# The data from the culture burdens were analysed using appropriate non-parametric statistical models (Kruskal-Wallis using Conover-Inman to make all pairwise comparisons between groups) with StatsDirect software v. 2.7.8., and compared to pre-treatment and vehicle controls.
# [2] = system: Neisseria gonorrhoeae strains; type: cell-based
# Text: Untreated controls and blank wells were included.
smiles,measurement,setting,value
C[C@H]1COc2c(N3CC[C@@H](Nc4ncccn4)C3)c(F)cc3c(=O)c(C(=O)O)cn1c23 [KSN-82-L22],"Bodyweight raw data, individual mouse","[1]; 20 mg/kg group, day 0 (day of infection)",29.4 and 27.2 and 30.5 and 29.7
same,"Bodyweight raw data, individual mouse","[1]; 20 mg/kg group, day 1 post infection",29.3 and 29.5 and 27.5 and 31.3 and 31.0
same,"Bodyweight raw data, individual mouse","[1]; 20 mg/kg group, day −1 post infection (before treatment)",29.1 and 29.2 and 27.3 and 30.2 and 29.8
same,"Bodyweight raw data, individual mouse","[1]; 20 mg/kg group, day −4 post infection (before treatment)",28.7 and 30.2 and 26.9 and 29.8 and 29.7
same,decrease of thigh bacterial burden compared to vehicle group,"[1]; 20 mg/kg/dose oral at 2 h, 18 h post infection",5 log10 CFU/g and > 5 log10 CFU/g
same,"Bodyweight raw data, individual mouse","[1]; 50 mg/kg group, day 0 (day of infection)",28.2 and 27.8 and 29.3 and 26.6 and 25.6
same,"Bodyweight raw data, individual mouse","[1]; 50 mg/kg group, day 1 post infection",29 and 28.1 and 30.1 and 26.1 and 26.4
same,"Bodyweight raw data, individual mouse","[1]; 50 mg/kg group, day −1 post infection (before treatment)",27.9 and 29.5 and 29.1 and 26.5 and 26.8
same,"Bodyweight raw data, individual mouse","[1]; 50 mg/kg group, day −4 post infection (before treatment)",27.8 and 29.2 and 28.9 and 27.0 and 27.9
same,decrease of thigh bacterial burden compared to vehicle group,"[1]; 50 mg/kg/dose oral at 2 h, 18 h post infection",> 5 log10 CFU/g
same,"thigh bacterial burden, result in words","[1]; 20 and 50 mg/kg, 18 h post infection",significantly decreased bacterial burden
same,body weights following infection,"[1]; infected neutropenic mice, treated groups",slightly increased
same,"Statistic analysis of thigh burden, P versus ML-83-009 20 mg/kg",[1]; substance at 20 mg/kg,P < 0.0001
same,"Statistic analysis of thigh burden, P versus ML-83-009 50 mg/kg",[1]; substance at 20 mg/kg,P = 0.0002
same,"Statistic analysis of thigh burden, P versus Pre treatment",[1]; substance at 20 mg/kg,P = 0.0139
same,"Statistic analysis of thigh burden, P versus Vehicle",[1]; substance at 20 mg/kg,P < 0.0001
same,"Statistic analysis of thigh burden, P versus ML-83-009 20 mg/kg",[1]; substance at 50 mg/kg,P < 0.0001
same,"Statistic analysis of thigh burden, P versus ML-83-009 50 mg/kg",[1]; substance at 50 mg/kg,P < 0.0001
same,"Statistic analysis of thigh burden, P versus Pre treatment",[1]; substance at 50 mg/kg,P = 0.0026
same,"Statistic analysis of thigh burden, P versus Vehicle",[1]; substance at 50 mg/kg,P < 0.0001
same,MIC,"[2]; strain 2007NG046, resistance PEN-R CFM-R CPD-R CIP-R",4 µg/mL
same,MIC,"[2]; strain 2008NG057, resistance PEN-R CFM-R CPD-R CIP-R",2 µg/mL
same,MIC,"[2]; strain 2008NG097, resistance PEN-R CFM-R CPD-R CIP-R",2 µg/mL
same,MIC,"[2]; strain 2009NG514, resistance PEN-R CPD-R CIP-R",2 µg/mL
same,MIC,"[2]; strain 2010NG122, resistance PEN-R CFM-R CIP-R",2 µg/mL
same,MIC,"[2]; strain ATCC 49226, resistance PEN-I TET-I",≤0.03125 µg/mL
same,MIC,"[2]; strain ATCC 700825, resistance —",≤0.03125 µg/mL
same,MIC,"[2]; strain BAA-1833, resistance PEN-I TET-I",≤0.03125 µg/mL
same,MIC,"[2]; strain BAA-1838, resistance —",≤0.03125 µg/mL
same,MIC,"[2]; strain CCUG 57595, resistance —",≤0.03125 µg/mL
same,MIC,"[2]; strain CCUG 57596, resistance CIP-I PEN-I TET-R",0.125 µg/mL
same,MIC,"[2]; strain CCUG 57597, resistance FEP-NS FOX-I CAZ-NS CIP-R OFX-R PEN-R TET-R",2 µg/mL
same,MIC,"[2]; strain CCUG 57598, resistance FOX-R CAZ-NS CRO-NS CIP-R OFX-R PEN-R TET-R",2 µg/mL
same,MIC,"[2]; strain CCUG 57599, resistance CIP-R OFX-R PEN-R TET-R",0.5 µg/mL
same,MIC,"[2]; strain CCUG 57600, resistance CIP-R OFX-R PEN-R TET-R",1 µg/mL
same,MIC,"[2]; strain CCUG 57601, resistance PEN-R TET-R",≤0.03125 µg/mL
same,MIC,"[2]; strain CCUG 57602, resistance PEN-I TET-I",0.0625 µg/mL
same,MIC,"[2]; strain FDA-CDC AR-BANK#0165, resistance CIP-R PEN-I TET-R",2 µg/mL
same,MIC,"[2]; strain FDA-CDC AR-BANK#0166, resistance CIP-R PEN-I TET-R",2 µg/mL
same,MIC,"[2]; strain FDA-CDC AR-BANK#0167, resistance CIP-S PEN-S TET-I",≤0.03125 µg/mL
same,MIC,"[2]; strain FDA-CDC AR-BANK#0168, resistance CIP-R PEN-I TET-R",1 µg/mL
same,MIC,"[2]; strain FDA-CDC AR-BANK#0169, resistance CIP-R PEN-I TET-R",2 µg/mL
same,MIC,"[2]; strain FDA-CDC AR-BANK#0170, resistance CIP-R PEN-I TET-R",2 µg/mL
same,MIC,"[2]; strain FDA-CDC AR-BANK#0171, resistance CIP-R PEN-I TET-R",1 µg/mL
same,MIC,"[2]; strain FDA-CDC AR-BANK#0172, resistance CIP-R PEN-R TET-R",1 µg/mL
same,MIC,"[2]; strain FDA-CDC AR-BANK#0173, resistance CIP-R PEN-R TET-R",2 µg/mL
same,MIC,"[2]; strain FDA-CDC AR-BANK#0174, resistance CIP-R PEN-R TET-R",2 µg/mL
same,MIC,"[2]; strain FDA-CDC AR-BANK#0175, resistance CIP-S PEN-I TET-I",≤0.03125 µg/mL
